{
  "source": "patent US10208288B2",
  "about": "“Differentiation of human embryonic stem cells into pancreatic endocrine cells” (Janssen Biotech, Inc., priority 2012, dated 2019)",
  "tested_on": "cells of the human embryonic stem cell line H1 differentiated to stage 6",
  "test": "Phase contrast imaging of endocrine cluster formation in stage 6 cultures",
  "format": "cell-based",
  "experimental": "Cells of the human embryonic stem cell line H1 (hESC H1, passage 40) were seeded as single cells at 1×10^5 cells/cm^2 on MATRIGEL™ (1:30 dilution; BD Biosciences, NJ) coated dishes in mTeSR®1 media (StemCell Technologies, Vancouver, Canada) supplemented with 10 μM of Y27632. Forty-eight hours post seeding, cultures were washed in incomplete PBS (phosphate buffered saline without Mg or Ca). Cultures were differentiated into pancreatic endoderm/endocrine lineages as follows: • a) Stage 1 (Definitive Endoderm (DE)—3 days): Cells were cultured for one day in stage 1 media (see Example 1, above). Cells were then cultured for an additional day in MCDB-131 medium supplemented with 0.1% fatty acid-free BSA, 0.0012 g/ml sodium bicarbonate, 1× GlutaMax™, 4.5 mM D-Glucose, 100 ng/ml GDF8, and 0.1 μM MCX compound. Cells were then cultured for an additional day in MCDB-131 medium supplemented with 0.1% fatty acid-free BSA, 0.0012 g/ml sodium bicarbonate, 1× GlutaMax™, 4.5 mM D-Glucose, and 100 ng/ml GDF8, then • b) Stage 2 (Primitive gut tube—2 days): Cells were treated for two days with MCDB-131 medium supplemented with 0.1% fatty acid-free BSA; 0.0012 g/ml sodium bicarbonate; 1× GlutaMax™; 4.5 mM D-Glucose; 0.25 mM ascorbic acid (Sigma, Mo.) and 25 ng/ml FGF7 (R & D Systems, MN), then • c) Stage 3 (Foregut—2 days): Cells were treated with MCDB-131 medium supplemented with a 1:200 dilution of ITS-X (Invitrogen, Ca); 4.5 mM Glucose; 1× GlutaMax™; 0.0017 g/ml sodium bicarbonate; 2% fatty acid-free BSA; 0.25 μM SANT-1 (Sigma, Mo.); 10 ng/ml of Activin-A (R& D Systems, MN); 1 μM RA (Sigma, Mo.); 25 ng/ml FGF7; 0.25 mM ascorbic acid; 200 nM TPB (PKC activator; Catalog No. 565740; EMD Chemicals, Gibstown, N.J.); 10 μM forskolin (FSK, Sigma, Mo.), and 100 nM LDN (BMP receptor inhibitor; Catalog No. 04-0019; Stemgent, Calif.) for day 1. […]",
  "data": [
    {"compound": "CCCCCCCCCCCCC/C=C/[C@@H](O)[C@@H](N)COP(=O)(O)O", "note": "[S1P, sphingosine-1-phosphate]", "values": [
      {"measurement": "time at which endocrine clusters emerged after start of stage 6", "setting": "10 μM added for three days at stage 6, FIG. 6A, 6B", "result": 3, "unit": "days"},
      {"measurement": "formation of clusters earlier than in control cultures", "setting": "10 μM at stage 6, vs control cultures", "result": "about 7 days"},
      {"measurement": "clustering of endocrine cells", "setting": "S6 cultures, day 7, phase contrast, FIG. 4B", "result": "clear evidence of clustering of endocrine cells"},
      {"measurement": "appearance of endocrine clusters", "setting": "S6 cultures, day 10, phase contrast, FIG. 4C, 4D", "result": "clusters were separated from each other by a thin layer of pancreatic endoderm epithelium"}
    ]}
  ]
}
